pEC50, pIC50: −log10 of the molar value.
Tests used:
[1] = tested on: P. falciparum asexual erythocytic stage; assay: Erythrocytic stage, asexual (P. falciparum); type: cell-based; conditions: Plasmodium falciparum
Protocol: (§1) Strains of Plasmodium falciparum (Dd2, 3D7, D6, K1, NF54, V1/3, HB3, 7G8, FCB, TM90C2B) were obtained from Malaria Research and Reference Reagent Resource Center (MR4). P. falciparum isolates were maintained with O-positive human blood in an atmosphere of 93% N2, 4% CO2, 3% O2 at 37° C. in complete culturing medium (10.4 g/L RPMI 1640, 5.94 g/L HEPES, 5 g/L albumax II, 50 mg/L hypoxanthine, 2.1 g/L sodium bicarbonate, 10% human serum and 43 mg/L gentamicin). Parasites were cultured in medium until the parasitemia reached 3-8%. Parasitemia was determined by checking at least 500 red blood cells from a Giemsa-stained blood smear. For the compound screening, a parasite suspension at 2.0% parasitemia and 2.0% hematocrit was created with medium. 25 μl of medium was dispensed into 384-well, black, clear-bottom plates. 100 nl of compounds in DMSO was transferred into the assay plates along with control compound (mefloquine). Next, 25 μl of the parasite suspension in medium was dispensed into the assay plates such that the final parasitemia was 1% and the final hematocrit was 1%. The assay plates were incubated for 72 hours at 37° C. […] The assay plates were read with 505 dichroic mirrors with 485-nm excitation and 530-nm emission settings.

P. falciparum TM90C2B = assay: In vitro P. falciparum blood-stage assay, strain TM90C2B; type: cell-based; conditions: Plasmodium falciparum
Protocol: as §1

[2] = tested on: Dd2 strain of P. falciparum; assay: Activity against the Dd2 strain of P. falciparum (SYBR Green I, 72-h incubation); type: cell-based; conditions: Plasmodium falciparum, DD2, 72 h, read-out: EC^50 Dd2
Procedure, shortened: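 Dd2 parasites at 1% parasitemia and 1.0% hematocrit in albumax II screening medium, 72 h at 37° C under 93% N2/4% CO2/3% O2; final DMSO 0.125%. Growth read as SYBR Green I fluorescence (485/530 nm) after lysis and 24 h staining. 20 μM mefloquine defined background, DMSO baseline.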

[3] = tested on: P. berghei (ANKA GFP-luc) sporozoites; assay: In vivo P. berghei liver-stage assay; set-up: species or system CD-1 mice; conditions: orally at 50 mg/kg two hours after sporozoite inoculation
Protocol: CD-1 mice (n=4 per experimental group; female; 6-7-week-old; 20-24 g) were inoculated intravenously with 1×10^5 freshly isolated P. berghei(ANKA GFP-luc) sporozoites intravenously, and compounds were administered orally at 50 mg/kg two hours later. Bioluminescence signals from the transgenic parasites were monitored by the In vivo Imaging System (IVIS 100, Xenogen; Caliper Life Sciences). Animals with parasitemia exceeding 20% were euthanized.

P. falciparum FCB = assay: In vitro P. falciparum blood-stage assay, strain FCB; type: cell-based; conditions: Plasmodium falciparum
Protocol: as §1

COc1ccc2c3c([nH]c2c1)[C@H](CO)N(C(C)=O)CC31CCN(C(=O)Nc2ccccc2F)CC1 [Compound 15, (R)-2′-acetyl-N-(2-fluorophenyl)-1′-(hydroxymethyl)-7′-methoxy-1′,2′,3′,9′-tetrahydrospiro [piperidine-4,4′-pyrido[3,4-b]indole]-1-carboxamide]
pIC50 [1]: 7.19
IC50 (P. falciparum TM90C2B): 104 nM
pEC50 [2]: 6.75 to 7.82
Parasitemia of treated animals (untreated controls: systemic parasitemia by day four) [3]: remained parasite free
Inhibition of the liver stage of P. berghei in vivo (FIG. 1) ([3]; bioluminescence): inhibit the liver stage
IC50 (P. falciparum FCB): 130 nM

Source: patent US9428507B2, “Compounds for the treatment of malaria” (The Broad Institute, Inc., priority 2013, dated 2016)
